Measurements as given in patent US9695155B2, “Herbicidal substituted pyrimidinyloxy benzene compounds” (E. I. DU PONT DE NEMOURS AND COMPANY, priority 2013, dated 2017).

Columns and labels:
Test in all cases: Test C preemergence
wheat, winter = format: in vivo, Triticum aestivum
From the text: (§1) Seeds of plant species selected from blackgrass (Alopecurus myosuroides), Italian ryegrass (Lolium multiflorum), wheat, winter (winter wheat, Triticum aestivum), galium (catchweed bedstraw, Galium aparine), corn (Zea mays), large (Lg) crabgrass (Digitaria sanguinalis), giant foxtail (Setaria faberii), johnsongrass (Sorghum halepense), lambsquarters (Chenopodium album), morningglory (Ipomoea coccinea), yellow nutsedge (Cyperus esculentus), pigweed (Amaranthus retroflexus), ragweed (common ragweed, Ambrosia elatior), soybean (Glycine max), barnyardgrass (Echinochloa crus-galli), oilseed rape (Brassica napus), waterhemp (common waterhemp, Amaranthus rudis), kochia (Kochia scoparia), wild oat (Avena fatua), surinam grass (Brachiaria decumbens), foxtail, green (green foxtail, Setaria viridis), goosegrass (Eleusine indica), bromegrass, downy (downy bromegrass, Bromus tectorum), nightshade (eastern black nightshade, Solanum ptycanthum), cocklebur (common cocklebur, Xanthium strumarium), cupgrass, woolly (woolly cupgrass, Eriochloa villosa), bermudagrass (Cynodon dactylon), sunflower, (common oilseed sunflower, Helianthus annuus), Russian thistle (Salsola kali), and velvetleaf (Abutilon theophrasti) were planted into a blend of loam soil and sand and treated preemergence with test chemicals formulated in a non-phytotoxic solvent mixture which included a surfactant.
(§2) At the same time, plants selected from these crop and weed species and also barley, winter (winter barley, Hordeum vulgare), windgrass (Apera spica-venti), chickweed (common chickweed, Stellaria media), deadnettle (henbit deadnettle, Lamium amplexicaule), and canarygrass (littleseed canarygrass, Phalaris minor) were planted in pots containing Redi-Earth® planting medium (Scotts Company, 14111 Scottslawn Road, Marysville, Ohio 43041) comprising spaghnum peat moss, vermiculite, wetting agent and starter nutrients and treated with postemergence applications of test chemicals formulated in the same manner. Plants ranged in height from 2 to 18 cm (1- to 4-leaf stage) for postemergence treatments. Treated plants and controls were maintained in a greenhouse for 13 to 15 days, after which time all species were compared to controls and visually evaluated. Plant response ratings, summarized in Table C, are based on a scale of 0 to 100 where 0 is no effect and 100 is complete control. A dash (-) response means no test result.

galium = format: in vivo, Galium aparine
From the text: as §1, §2

corn = format: in vivo, Zea mays
Outline: (§3)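 Whole-plant greenhouse test with surfactant-containing solvent formulation, applied preemergence to sown loam–sand pots or postemergence to 2–18 cm plants. Scored by eye 13 to 15 days on, 0–100 scale.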

large (Lg) crabgrass = format: in vivo, Digitaria sanguinalis
Outline: as §3

giant foxtail = format: in vivo, Setaria faberii
Outline: as §3

lambsquarters = format: in vivo, Chenopodium album
Outline: as §3

pigweed = format: in vivo, Amaranthus retroflexus
From the text: as §1, §2

waterhemp = format: in vivo, Amaranthus rudis
Outline: as §3

velvetleaf = format: in vivo, Abutilon theophrasti
Outline: as §3

[1] = 16 g ai/ha, preemergence, scale 0 to 100 (0 no effect, 100 complete control)
[2] = 125 g ai/ha, preemergence, scale 0 (no effect) to 100 (complete control)
[3] = Preemergence, 62 g ai/ha, scale 0 to 100, 0 no effect, 100 complete control

N#Cc1cccc(Oc2ncc(F)cn2)c1-n1cc(C(F)(F)F)cn1 [Compound 79, 3-[(5-fluoro-2-pyrimidinyl)oxy]-2-[4-(trifluoromethyl)-1H-pyrazol-1-yl]benzonitrile]
plant injury at 62 g/ha (wheat, winter; Triticum aestivum, pre-emergence, 62 g ai/ha, preemergence, scale 0 (no effect) to 100 (complete control), read-out: Wheat plant response rating): 35% | plant injury at 125 g/ha (wheat, winter; Triticum aestivum, pre-emergence, 125 g ai/ha, preemergence, scale 0 (no effect) to 100 (complete control), read-out: Wheat plant response rating): 85% | plant injury at 250 g/ha (wheat, winter; Triticum aestivum, pre-emergence, 250 g ai/ha, preemergence, scale 0 (no effect) to 100 (complete control), read-out: Wheat plant response rating): 90% | plant injury at 31 g/ha (wheat, winter; Triticum aestivum, pre-emergence, Preemergence, 31 g ai/ha, scale 0 to 100, 0 no effect, 100 complete control, read-out: Plant response rating, Wheat): 10% | pest or weed control at 62 g/ha (galium; Galium, pre-emergence, 62 g ai/ha, preemergence, scale 0 (no effect) to 100 (complete control), read-out: Galium plant response rating): 90% | pest or weed control at 125 g/ha (galium; Galium, pre-emergence, 125 g ai/ha, preemergence, scale 0 (no effect) to 100 (complete control), read-out: Galium plant response rating): 90% | pest or weed control at 250 g/ha (galium; Galium, pre-emergence, 250 g ai/ha, preemergence, scale 0 (no effect) to 100 (complete control), read-out: Galium plant response rating): 90% | pest or weed control at 31 g/ha (galium; Galium, pre-emergence, Preemergence, 31 g ai/ha, scale 0 to 100, 0 no effect, 100 complete control, read-out: Plant response rating, Galium): 90% | plant injury at 125 g/ha (corn; Zea mays, pre-emergence, 125 g ai/ha, preemergence, scale 0 (no effect) to 100 (complete control), read-out: Corn plant response rating): 80% | plant injury at 250 g/ha (corn; Zea mays, pre-emergence, 250 g ai/ha, preemergence, scale 0 (no effect) to 100 (complete control), read-out: Corn plant response rating): 95% | Corn plant response rating (crop injury, 0 = no effect, 100 = complete kill) at 31 g/ha (corn; Zea mays, pre-emergence, Preemergence, 31 g ai/ha, scale 0 to 100, 0 no effect, 100 complete control): 40% | pest or weed control at 62 g/ha (large (Lg) crabgrass; Digitaria sanguinalis, pre-emergence, 62 g ai/ha, preemergence, scale 0 (no effect) to 100 (complete control), read-out: Crabgrass, Large plant response rating): 100% | pest or weed control at 125 g/ha (large (Lg) crabgrass; Digitaria sanguinalis, pre-emergence, 125 g ai/ha, preemergence, scale 0 (no effect) to 100 (complete control), read-out: Crabgrass, Large plant response rating): 100% | pest or weed control at 250 g/ha (large (Lg) crabgrass; Digitaria sanguinalis, pre-emergence, 250 g ai/ha, preemergence, scale 0 (no effect) to 100 (complete control), read-out: Crabgrass, Large plant response rating): 100% | pest or weed control at 31 g/ha (large (Lg) crabgrass; Digitaria sanguinalis, pre-emergence, Preemergence, 31 g ai/ha, scale 0 to 100, 0 no effect, 100 complete control, read-out: Plant response rating, Crabgrass, Large): 100% | pest or weed control at 62 g/ha (giant foxtail; Setaria faberi, pre-emergence, 62 g ai/ha, preemergence, scale 0 (no effect) to 100 (complete control), read-out: Foxtail, Giant plant response rating): 100% | pest or weed control at 125 g/ha (giant foxtail; Setaria faberi, pre-emergence, 125 g ai/ha, preemergence, scale 0 (no effect) to 100 (complete control), read-out: Foxtail, Giant plant response rating): 100% | pest or weed control at 250 g/ha (giant foxtail; Setaria faberi, pre-emergence, 250 g ai/ha, preemergence, scale 0 (no effect) to 100 (complete control), read-out: Foxtail, Giant plant response rating): 100% | pest or weed control at 31 g/ha (giant foxtail; Setaria faberi, pre-emergence, Preemergence, 31 g ai/ha, scale 0 to 100, 0 no effect, 100 complete control, read-out: Plant response rating, Foxtail, Giant): 98% | pest or weed control at 62 g/ha (lambsquarters; Chenopodium album, pre-emergence, 62 g ai/ha, preemergence, scale 0 (no effect) to 100 (complete control), read-out: Lambsquarters plant response rating): 100% | pest or weed control at 125 g/ha (lambsquarters; Chenopodium album, pre-emergence, 125 g ai/ha, preemergence, scale 0 (no effect) to 100 (complete control), read-out: Lambsquarters plant response rating): 100% | pest or weed control at 250 g/ha (lambsquarters; Chenopodium album, pre-emergence, 250 g ai/ha, preemergence, scale 0 (no effect) to 100 (complete control), read-out: Lambsquarters plant response rating): 100% | pest or weed control at 31 g/ha (lambsquarters; Chenopodium album, pre-emergence, Preemergence, 31 g ai/ha, scale 0 to 100, 0 no effect, 100 complete control, read-out: Plant response rating, Lambsquarters): 100% | pest or weed control at 62 g/ha (pigweed; Amaranthus retroflexus, pre-emergence, 62 g ai/ha, preemergence, scale 0 (no effect) to 100 (complete control), read-out: Pigweed plant response rating): 100% | pest or weed control at 125 g/ha (pigweed; Amaranthus retroflexus, pre-emergence, 125 g ai/ha, preemergence, scale 0 (no effect) to 100 (complete control), read-out: Pigweed plant response rating): 100% | pest or weed control at 250 g/ha (pigweed; Amaranthus retroflexus, pre-emergence, 250 g ai/ha, preemergence, scale 0 (no effect) to 100 (complete control), read-out: Pigweed plant response rating): 100% | pest or weed control at 31 g/ha (pigweed; Amaranthus retroflexus, pre-emergence, Preemergence, 31 g ai/ha, scale 0 to 100, 0 no effect, 100 complete control, read-out: Plant response rating, Pigweed): 100% | pest or weed control at 62 g/ha (waterhemp; Amaranthus tuberculatus, pre-emergence, 62 g ai/ha, preemergence, scale 0 (no effect) to 100 (complete control), read-out: Waterhemp plant response rating): 100% | pest or weed control at 125 g/ha (waterhemp; Amaranthus tuberculatus, pre-emergence, 125 g ai/ha, preemergence, scale 0 (no effect) to 100 (complete control), read-out: Waterhemp plant response rating): 100% | pest or weed control at 250 g/ha (waterhemp; Amaranthus tuberculatus, pre-emergence, 250 g ai/ha, preemergence, scale 0 (no effect) to 100 (complete control), read-out: Waterhemp plant response rating): 100% | pest or weed control at 31 g/ha (waterhemp; Amaranthus tuberculatus, pre-emergence, Preemergence, 31 g ai/ha, scale 0 to 100, 0 no effect, 100 complete control, read-out: Plant response rating, Waterhemp): 100% | pest or weed control at 62 g/ha (velvetleaf; Abutilon theophrasti, pre-emergence, 62 g ai/ha, preemergence, scale 0 (no effect) to 100 (complete control), read-out: Velvetleaf plant response rating): 100% | pest or weed control at 125 g/ha (velvetleaf; Abutilon theophrasti, pre-emergence, 125 g ai/ha, preemergence, scale 0 (no effect) to 100 (complete control), read-out: Velvetleaf plant response rating): 100% | pest or weed control at 250 g/ha (velvetleaf; Abutilon theophrasti, pre-emergence, 250 g ai/ha, preemergence, scale 0 (no effect) to 100 (complete control), read-out: Velvetleaf plant response rating): 100% | pest or weed control at 31 g/ha (velvetleaf; Abutilon theophrasti, pre-emergence, Preemergence, 31 g ai/ha, scale 0 to 100, 0 no effect, 100 complete control, read-out: Plant response rating, Velvetleaf): 90%

Cc1cnc(Oc2cccc(C#N)c2-n2cc(C(F)(F)F)cn2)nc1 [Compound 180]
Wheat plant response rating (wheat, winter; [1]): 0 | Wheat plant response rating (wheat, winter; [2]): 50 | Plant response rating, Wheat (wheat, winter; [3]): 5 | Galium plant response rating (galium; [1]): 80 | Galium plant response rating (galium; [2]): 100 | Plant response rating, Galium (galium; [3]): 100 | Corn plant response rating (corn; [1]): 5 | Corn plant response rating (corn; [2]): 65 | Plant response rating, Corn (corn; [3]): 30 | Crabgrass, Large plant response rating (large (Lg) crabgrass; [1]): 100 | Crabgrass, Large plant response rating (large (Lg) crabgrass; [2]): 100 | Plant response rating, Crabgrass, Large (large (Lg) crabgrass; [3]): 100 | Foxtail, Giant plant response rating (giant foxtail; [1]): 90 | Foxtail, Giant plant response rating (giant foxtail; [2]): 100 | Plant response rating, Foxtail, Giant (giant foxtail; [3]): 100 | Lambsquarters plant response rating (lambsquarters; [1]): 85 | Lambsquarters plant response rating (lambsquarters; [2]): 100 | Plant response rating, Lambsquarters (lambsquarters; [3]): 100 | Pigweed plant response rating (pigweed; [1]): 85 | Pigweed plant response rating (pigweed; [2]): 100 | Plant response rating, Pigweed (pigweed; [3]): 100 | Waterhemp plant response rating (waterhemp; [1]): 90 | Waterhemp plant response rating (waterhemp; [2]): 100 | Plant response rating, Waterhemp (waterhemp; [3]): 100 | Velvetleaf plant response rating (velvetleaf; [1]): 75 | Velvetleaf plant response rating (velvetleaf; [2]): 100 | Plant response rating, Velvetleaf (velvetleaf; [3]): 100
